Results reported in PMC3884839, “Pharmacokinetics and pharmacodynamics utilizing unbound target tissue exposure as part of a disposition-based rationale for lead optimization of benzoxaboroles in the treatment of Stage 2 Human African Trypanosomiasis” (Parasitology, 2013).
≈ marks a conversion by molar mass, not a printed value.

Columns and labels:
[1] = system: T. b. brucei (TREU 667); assay: Murine model of Stage 2 (CNS) HAT; type: in vivo, mouse
Description: The efficacy of benzoxaboroles was evaluated in a murine model of Stage 2 (CNS) HAT (Nare et al. [2010]; Jacobs et al. [2011]). In summary, mice (n = 10 per group) were infected by bolus i.p. injection of 1×10^4 T. b. brucei (TREU 667) parasites. A single bolus i.p. dose (10 mg kg^-1) of berenil (Sigma-Aldrich, St. Louis, MO) was administered on day 4 as a positive treatment control for haemolymphatic-stage infection. Infection of the remaining animals proceeded for 21 days to establish a CNS infection before treatment with either a single dose of berenil (as above) or test compounds by the oral route either once or twice daily over 7 days at the doses indicated below. Animals were checked at least weekly for parasitaemia and were immediately removed from cages and euthanized upon recrudescence. Animals were considered cured if they were […] for at least 180 days after treatment.

[2] = Unbound brain exposure (AUC0-24) in uninfected mice after once daily oral SCYX-7158; type: in vivo, mouse; settings: 12·5 mg kg^−1 once daily
Description: The CNS disposition and pharmacokinetics of the benzoxaboroles were evaluated in infected and uninfected mice following oral administration. In vivo phases of single-dose rodent PK studies were performed at Vivisource (Waltham, MA) following Institutional Animal Care and Use Committee (IACUC) review in an Association for Assessment and Accreditation of Laboratory Animal Care International (AAALAC)-approved facility. Studies in Trypanosoma brucei brucei (TREU 667 strain) infected mice, or uninfected satellite animals, were performed after IACUC review at Pace University (NewYork, NY).
Male CD-1 or female Swiss Webster mice (approximately 25 g) were administered test compounds by oral gavage either once (QD) or twice per day (Q12 h) with doses ranging between 6 and 100 mg kg^−1 as described below. All compounds were formulated as an in situ sodium salt in 2% (v/v) ethanol, 5% (m/v) dextrose, to yield typically clear colourless solutions that were administered at 4 mL kg^−1. Blood samples for pharmacokinetic studies were collected into polypropylene tubes containing K2EDTA anticoagulant and stored on wet ice until centrifuged and processed to plasma. Plasma was stored at −80 °C. Blood samples from mice were collected via cardiac puncture under terminal anaesthesia. Rodents were euthanized in a CO2 chamber before collection of terminal blood or tissue samples. Brain tissues were blotted dry and stored at approximately −80 °C.
Pharmacokinetic studies were performed in CD-1 mice to establish AUC0–24 following single and 7×once daily oral doses of 6·25, 12·5, 25, 50 and 100 mg kg^−1 SCYX-7158 (Jacobs et al. [2011]). […] Values for unbound AUC0–24 in brain were calculated using the single and steady-state exposure data (non-parametric super-positioning indicated steady-state was mostly attained on day 2 so day 7 data were employed for days 2–7 rather than modelled data for days 2–6) and compared to the target unbound AUC from the in vitro reversibility studies (Fig. 9).

[3] = system: MDCKII-hMDR1 monolayer (Pgp efflux transporter); assay: MDCKII-hMDR1 monolayer permeability and Pgp-mediated efflux; type: in vitro ADME
Description: The propensity of test compounds to cross the BBB was examined using an in vitro MDCKII-hMDR1 monolayer assay (Polli et al. [2001]). In summary, MDCKII-hMDR1 cells (Netherlands Cancer Institute, Amsterdam, the Netherlands) were seeded at a density of 3×10^5 cells per well onto microporous polycarbonate membranes in 12 well Costar Transwell plates (Corning Inc., Lowell, MA). The cells were incubated for 3 days during which time they formed confluent monolayers. Trans-epithelial resistance (TEER) was measured for each insert to ensure the integrity of the monolayer (acceptable TEER >160 Ω cm^2). The permeability and susceptibility for Pgp-mediated efflux was evaluated by adding each compound at a concentration of 3 μM, in the presence or absence of 2 μM GF120918 (a potent Pgp inhibitor), to the apical compartment. Competency of the Pgp efflux transporter was confirmed by assay of propranolol (non-substrate) and amprenavir (substrate). Cell monolayers were incubated in triplicate with shaking (160 rpm) at 37 °C in a 5% CO2-enriched humidified atmosphere for 1 h. Samples were removed from the apical and basolateral compartments after incubation and assayed for test compound concentrations by LC-MSMS. Values for mass balance, PappA−B, PappA−B+GF918, and absorption quotient (AQ) were calculated for each compound (Troutman and Thakker, [2003]; Thiel-Demby et al. [2004]). Acceptance criterion for mass balance was 70–120%.

[4] = system: T. b. brucei; assay: In vitro reversibility of trypanocidal effects (transient exposure); type: cell-based, Trypanosoma brucei brucei
Description: The time and concentration dependency for oxaborole-mediated killing of T. b. brucei, under constant (time-kill) and transient (reversibility) drug-pressure, was determined as described previously (Nare et al. 2010).
Reversibility was assessed as the ability T. b. brucei parasites to recover from transient exposure (0–24 h) to test benzoxaboroles (0·02–10 μg mL^−1). Trypanosomes were seeded in clear 96-well ‘V’-bottom plates at a density of 1×10^5 parasites per well; one plate was prepared for each time-point. After the designated incubation time, each plate was removed from the incubator and centrifuged at 4400 g for 5 min to sediment parasites. The supernatant containing the test compound was aspirated and three washing cycles were performed where 100 μl of warmed HMI-9 media was added to each well and then aspirated. […] Thus, each concentration and time-point was evaluated in triplicate. Each plate was incubated for a further 72 h, whereupon, trypanocidal activity was determined using resazurin (Sigma-Aldrich, St. Louis, MO) where 20 μl of a 25 mg/100 mL stock in PBS was added, incubated for an additional 4–6 h and fluorescence measured using the EnVision plate reader (excitation wavelength, 530 nm and emission wavelength, 590 nm).

[5] = system: L929 mammalian cell line; assay: L929 mammalian cell cytotoxicity / selectivity; type: cell-based
[6] = 6·25 mg kg^−1 day^−1 oral for 7 days

- time unbound concentration in brain tissue exceeded IC50u on each day [2]: 10 h
- time unbound concentration in brain tissue exceeded MICu on each day [2]: 4 h
- unbound AUC0–24 as percentage of the target MICu AUC [2]: approximately 50%
- P-gp classification [3]: Non-substrate
- Mass balance A–B+GF918 ([3]; 3 μM, with GF918): 75%
- Mass balance A–B ([3]; 3 μM, without GF918): 79%
SMILES: CC1(C)OB(O)c2cc(NC(=O)c3ccc(F)cc3C(F)(F)F)ccc21 [SCYX-7158]
- cure outcome ([1]; 50 mg kg^−1, single oral dose): No animals were cured
- cure rate ([1]; 50 mg kg^−1 oral, ⩾3 days of dosing): 100%
- day of recrudescence of parasitaemia after infection [1, 6]: ~35 days
- treatment outcome [1, 6]: cleared of haemolymphatic T. b. brucei but demonstrated recrudescence of parasitaemia
- cure rate ([1]; 12·5 mg kg^−1 oral once daily for 7 days): 80%
- cure outcome ([1]; ⩾25 mg kg^−1 day^−1 oral for 7 days): complete cures
- reduction in survival relative to untreated control parasites ([4]; Cu 0·123 μg mL^−1 (Ct 0·313 μg mL^−1), 24 h incubation): 24%
- exposure time tolerated without impact on survival ([4]; Cu 1·11 μg mL^−1 (Ct 1·25 μg mL)): 8 h
- IC50 ([5]; Mus musculus, L929 mammalian cell line, cytotoxicity): 50 µg/mL (≈ 136 µM)
- Selectivity ([5]; parasite vs L929): ⩾138
